Results from publication PMC13403234, “Engineering Cathepsin S Selective Chemical Probes and Antibody−Drug Conjugates through Substrate Profiling with Unnatural Amino Acids” (Journal of Medicinal Chemistry, 2026).
*1 amine or outer side, *2 acyl side, *3 side chain or, on linkers, in order; H or OH if unused. Where a SMILES comes first, the peptide text is derived from it. [ ]: non-standard residue; d: D form. The star is where a group is joined. Dolaproine = CO[C@@H]([C@@H]1CCCN1)[C@@H](C)C(=O)O; Phe(F5) = N[C@@H](Cc1c(F)c(F)c(F)c(F)c1F)C(=O)O; Dil = CC[C@H](C)[C@H](NC)[C@@H](CC(=O)O)OC; PABC = O=C(OCc1ccc(N[*:1])cc1)[*:2]; X1 = C[C@@H](N*)[C@@H](O)c1ccccc1; Cit = NC(=O)NCCC[C@H](N)C(=O)O; NMeV = CN[C@H](C(=O)O)C(C)C; ClZ = O=C(OCc1ccccc1Cl)*

Legend:
[1] = molecular target: T1, active cathepsin S in MDA-MB-231 live cells (Homo sapiens, UniProt P25774); assay: Labeling of active cathepsin S in MDA-MB-231 live cells with Cy5 probes; type: cell-based; conditions: inhibitor 25 μM for 2 h, then OG-233 or OG-234 for 24 h
T1 construct: endogenous in cells; host or cells: MDA-MB-231
Protocol: 50,000 of MDA-MB-231 cells were seeded into 12-well plate and allowed to attach overnight. The next day, OG-233 and OG-234 probes (1 μM final concentration) were added to the cells and incubated for various times (from 0,5 h up to 24 h). Control cells were preincubated with cathepsin S inhibitors (JN1, JN4, JN7) at 25 μM for 2 h, and then incubated with OG-233 or OG-234 probes for 24 h. Next, cells were harvested and prepared for SDS-PAGE analysis as described in the above section. Electrophoresis was run for 25 min (4−12% Bis-Tris Plus 10-well gel, 200 V). Next, proteins were transferred onto the membrane (0.2 μm nitrocellulose membrane, 10 V, 60 min) and Ponceau S was used to verify equal loading and transfer. Membranes were then blocked with 5% BSA in TBS-T buffer for 1 h at RT. Membranes were next incubated anticathepsin S antibody (1:1,000, overnight, 4 °C), and the next day with a secondary antibody (IRDye 800CW, donkey anti-Goat) for 30 min at RT, and scanned at 680 and 800 nm using the Sapphire biomolecular imager (Azure Biosystems) to detect the Cy5 probes and cathepsin S. All images were analyzed with Image Studio software.

[2] = molecular target: T2, Cathepsin S (Homo sapiens, UniProt P25774); assay: Fluorogenic ACC substrate hydrolysis kinetics, cathepsin S; type: biochemical; design: kcat Cathepsin S: unit not given here; conditions: third-generation substrates, steady-state; for Km: Table S5; for kcat Cathepsin S: Table S6
T2 construct: made in house
Protocol: (§1) All kinetic studies were performed using an fMax fluorescence plate reader (Molecular Devices) in kinetic mode with 96- or 384-well plates. ACC fluorescence was monitored at excitation and emission wavelengths of 355 and 460 nm, respectively. Recombinant human cysteine cathepsins L, V, B, K, and S were expressed and purified as previously described. Prior to use, all cysteine cathepsins were titrated with E64 to normalize enzymatic activity. Assays for cathepsins were conducted in 100 mM sodium acetate buffer containing 10 mM NaCl and 10 mM DTT (pH 5.5). Breast cancer cell lysates (BT-474, MCF-7, MDA-MB-231) were prepared by culturing cells to confluence in the appropriate media, replacing media with PBS, and harvesting the cells using a cell scraper (without trypsin). The cells were pelleted by centrifugation (400 × g, 5 min), resuspended in PBS, and centrifuged again under the same conditions. After removal of the supernatant, the pellet was resuspended in cathepsin assay buffer (excluding DTT) and sonicated. Lysates were then clarified by centrifugation (12,000 × g, 5 min), and the supernatants were collected and stored at −80 °C until use. All enzymatic assays, including HyCoSuL library screening and kinetic analyses of synthetic substrates, inhibitors, probes and prodrugs, were conducted at 37 °C and repeated at least three times. Mean values are reported. Kinetic data were analyzed using GraphPad Prism software (version 10.4.1).
(§2) Peptide substrates for cathepsin S were designed based on P4-P1 specificity profiling and synthesized on Rink amide resin using standard Fmoc solid-phase peptide synthesis protocols. The resin was swollen in dichloromethane (DCM) and deprotected with 20% piperidine in DMF. Fmoc-ACC-OH was coupled twice using HOBt/DIC in DMF and allowed to react overnight. Subsequent Fmoc-protected amino acids were coupled sequentially using HATU and 2,4,6-collidine, with Fmoc deprotection after each step using 20% piperidine in DMF. Following chain assembly, the N-terminus was acetylated using AcOH/HBTU/DIPEA in DMF for 45 min. Peptides were cleaved from the resin using TFA/TIPS/H2O (95:2.5:2.5, v/v/v) for 2 h, precipitated in cold diethyl ether, lyophilized, and purified by preparative HPLC. […] Final compounds were dissolved in DMSO at 20 mM and stored at −80 °C. To evaluate substrate selectivity, each fluorogenic peptide (10 μM) was incubated with recombinant cysteine cathepsins (5 nM) in assay buffer at 37 °C. Fluorescence emission was recorded at 460 nm, and initial cleavage rates were reported as relative fluorescence units per second (RFU/s). For selected substrates, detailed kinetic parameters (k cat, KM, and k cat/KM) were determined as previously described.

[3] = molecular target: T3, Cathepsin L (Homo sapiens, UniProt P07711); assay: Fluorogenic ACC substrate hydrolysis kinetics, cathepsin L; type: biochemical; design: kcat Cathepsin L: unit not given here; conditions: third-generation substrates, steady-state; for Km: Table S5; for kcat Cathepsin L: Table S6
T3 construct: made in house
Protocol: as §1, §2

[4] = molecular target: T4, Cathepsin V (Homo sapiens, UniProt O60911); assay: Fluorogenic ACC substrate hydrolysis kinetics, cathepsin V; type: biochemical; design: kcat Cathepsin V: unit not given here; conditions: third-generation substrates, steady-state; for Km: Table S5; for kcat Cathepsin V: Table S6
T4 construct: made in house
Protocol: as §1, §2

[5] = molecular target: T5, Cathepsin B (Homo sapiens, UniProt P07858); assay: Fluorogenic ACC substrate hydrolysis kinetics, cathepsin B; type: biochemical; design: made in house; kcat Cathepsin B: unit not given here; conditions: third-generation substrates, steady-state; for Km: Table S5; for kcat Cathepsin B: Table S6
Protocol: as §1, §2

[6] = molecular target: T2, Cathepsin S; assay: Second-order rate constants of inhibition (kobs/[I]), cathepsin S; type: biochemical; conditions: for kobs/[I] Cath S / Selectivity S to B / Selectivity S to V: Figure 4D; for kobs/[I] Cath S: Cy5- and BODIPY-labeled probes; for Selectivity S to B / Selectivity S to V: calculated from kobs/[I]; for Selectivity S to B: cathepsin S over cathepsin B; for Selectivity S to V: cathepsin S over cathepsin V
Protocol: as §1
(§3) The second-order rate constants of inhibition (k obs/[I]) were determined for human recombinant cathepsins S, B, L, and V using their respective assay buffers. All measurements were performed under pseudo-first-order kinetic conditions, as previously described. Inhibitors or ABPs were serially diluted in assay buffer and transferred to a 96-well plate. Each well was supplemented with the fluorogenic substrate Cbz-Phe-Arg-AMC at a final concentration of 25 μM and preincubated for 15 min. In parallel, enzymes were preactivated in assay buffer for 15 min at room temperature. Following preincubation, the activated enzymes were added to the wells, and fluorescence was monitored immediately for 30 min. The k obs/[I] values (M^-1S^-1) were calculated from the progress curves and averaged from at least three independent experiments. Final inhibitor (or ABP) concentrations were maintained at a minimum of 5-fold excess relative to enzyme concentrations to ensure pseudo-first-order conditions. Results were analyzed in GraphPad Prism and are reported as mean ± standard deviation.

[7] = molecular target: T3, Cathepsin L; assay: Second-order rate constants of inhibition (kobs/[I]), cathepsin L; type: biochemical; conditions: for kobs/[I] Cath L: Figure 4D, Cy5- and BODIPY-labeled probes
Protocol: as §1, §3

[8] = molecular target: T5, Cathepsin B; assay: Second-order rate constants of inhibition (kobs/[I]), cathepsin B; type: biochemical; design: made in house; conditions: for kobs/[I] Cath B: Figure 4D, Cy5- and BODIPY-labeled probes
Protocol: as §1, §3

[9] = molecular target: T2, Cathepsin S; assay: Prodrug cleavage / MMAE release by LC-MS, cathepsin S; type: biochemical; conditions: prodrug 50 μM, pH 5.5, 37 °C, 0-120 min
Protocol: Cleavage assays were conducted at 37 °C in 1 mL reaction volumes using acetate buffer composed of 100 mM sodium acetate (pH 5.5), 100 mM NaCl, 1 mM EDTA, and 5 mM DTT. Buffers were prepared at room temperature and equilibrated before use. Prodrugs were initially dissolved in DMSO at a stock concentration of 10 mM, then diluted into the reaction buffer to a final concentration of 50 μM, maintaining a DMSO concentration below 0.5% (v/v). Reactions were initiated by the addition of recombinant cathepsin and carried out in glass LC-MS vials incubated at 37 °C. At specified time points (0, 5, 30, 60, and 120 min), aliquots were taken and directly injected into the LC-MS system without further processing. Quantification of MMAE release was based on absorbance at 220 nm. The area under the MMAE peak was integrated, and the amount of released MMAE was plotted as a function of time. Each time point was measured in triplicate, and results are presented as mean ± standard deviation (SD). A standard curve was prepared using free MMAE at concentrations of 1, 5, 10, 20, and 50 μM to enable accurate quantification of MMAE released from the prodrugs.

[10] = molecular target: T4, Cathepsin V; assay: Second-order rate constants of inhibition (kobs/[I]), cathepsin V; type: biochemical; conditions: Figure 4D; Cy5- and BODIPY-labeled probes
Protocol: as §1, §3

T3 sequence (P07711 114-333): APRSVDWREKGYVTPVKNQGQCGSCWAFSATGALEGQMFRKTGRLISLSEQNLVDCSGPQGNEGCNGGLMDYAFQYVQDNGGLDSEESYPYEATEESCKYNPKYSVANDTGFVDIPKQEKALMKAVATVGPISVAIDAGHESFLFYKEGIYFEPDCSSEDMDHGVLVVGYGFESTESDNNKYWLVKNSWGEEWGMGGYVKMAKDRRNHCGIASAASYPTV
T2 sequence (P25774 115-331): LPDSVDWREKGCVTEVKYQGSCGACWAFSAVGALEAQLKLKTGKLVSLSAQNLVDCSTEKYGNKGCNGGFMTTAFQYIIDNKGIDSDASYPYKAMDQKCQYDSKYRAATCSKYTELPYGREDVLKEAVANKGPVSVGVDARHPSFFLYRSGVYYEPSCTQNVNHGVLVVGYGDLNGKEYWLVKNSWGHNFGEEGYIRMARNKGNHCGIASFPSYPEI
T4 sequence (O60911 114-334): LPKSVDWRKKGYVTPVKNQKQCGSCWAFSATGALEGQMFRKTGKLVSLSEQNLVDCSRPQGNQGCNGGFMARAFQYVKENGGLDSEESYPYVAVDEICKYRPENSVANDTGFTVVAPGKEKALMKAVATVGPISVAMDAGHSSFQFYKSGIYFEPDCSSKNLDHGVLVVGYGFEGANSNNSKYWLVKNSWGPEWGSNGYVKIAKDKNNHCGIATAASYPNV
T1 sequence (P25774 115-331): as the sequence (P25774 115-331) above

Molecule: Ac-Phe(F5)-Cit-Lys(2ClZ)-Glu(Me)-AOMK [JN-7]
- effect of inhibitor pretreatment on probe binding [1]: did not influence probe binding

Molecule: Ac-Phe(F5)-Thz-2Aoc-Gln-ACC [OG-200]
- Km [2]: 1.63 µM
- kcat Cathepsin S [2]: 0,15
- Km [3]: 15.9 µM
- kcat Cathepsin L [3]: 0,02
- Km [4]: 4.31 µM
- kcat Cathepsin V [4]: 0,20
- Km [5]: 20.3 µM
- kcat Cathepsin B [5]: 0,30

Molecule: CC(C)C[C@H](NC(=O)[C@H]1O[C@@H]1C(=O)O)C(=O)NCCCCN=C(N)N [E-64, reference compound]
- kinact/KI ([6]; pH 5.5, Table S8, AOMK inhibitors, pseudo-first-order conditions): 132000 M⁻¹ s⁻¹
- kinact/KI ([7]; pH 5.5, read-out: kobs/[I] Cathepsin L): 65100 M⁻¹ s⁻¹
- kinact/KI ([8]; pH 5.5, read-out: kobs/[I] Cathepsin B): 81200 M⁻¹ s⁻¹

Molecule: CC[C@H](C)[C@@H]([C@@H](CC(=O)N1CCC[C@H]1[C@H](OC)[C@@H](C)C(=O)N[C@H](C)[C@@H](O)c1ccccc1)OC)N(C)C(=O)[C@@H](NC(=O)[C@H](C(C)C)N(C)C(=O)OCc1ccc(NC(=O)[C@H](CCC(=O)OC)NC(=O)[C@H](CCCCNC(=O)OCc2ccccc2Cl)NC(=O)[C@H](CCCNC(N)=O)NC(=O)[C@H](Cc2c(F)c(F)c(F)c(F)c2F)NC(C)=O)cc1)C(C)C [compound 313, Ac-Phe(F5)-Cit-Lys(2ClZ)-Glu(Me)-PABC-MMAE] (Ac-[Phe(F5)][Cit]K(ClZ)E(OMe)[PABC][NMeV]V[Dil][Dolaproine]-X1; N-terminus and C-terminus assumed)
- cleavage / free MMAE release by cathepsin S [9]: selectively and efficiently hydrolyzed only by cathepsin S

Molecule: CC[C@H](C)[C@@H]([C@@H](CC(=O)N1CCC[C@H]1[C@H](OC)[C@@H](C)C(=O)N[C@H](C)[C@@H](O)c1ccccc1)OC)N(C)C(=O)[C@@H](NC(=O)[C@H](C(C)C)N(C)C(=O)OCc1ccc(NC(=O)[C@@H](CCC(=O)OC)NC(=O)[C@H](CCCCNC(=O)OCc2ccccc2Cl)NC(=O)[C@H](CCCNC(N)=O)NC(=O)[C@H](Cc2c(F)c(F)c(F)c(F)c2F)NC(C)=O)cc1)C(C)C [313D, Ac-Phe(F5)-Cit-Lys(2ClZ)-DGlu(Me)-PABC-MMAE] (Ac-[Phe(F5)][Cit]K(ClZ)[dE](OMe)[PABC][NMeV]V[Dil][Dolaproine]-X1; N-terminus and C-terminus assumed)
- cleavage / free MMAE release by cathepsin S [9]: remained stable

Molecule: BODIPY-PEG(4)-Met(O2)-Cit-NptGly-Glu(Me)-AOMK [OG-236]
- kobs/[I] Cath S [6]: 78,300 M^-1s^-1
- Selectivity S to B [6]: 21
- Selectivity S to V [6]: 36
- kobs/[I] Cath L [7]: < 500 M⁻¹ s⁻¹
- kobs/[I] Cath V [10]: 2,170 M^-1s^-1
- kobs/[I] Cath B [8]: 3,800 M^-1s^-1

Molecule: Ac-Met(O2)-Cit-NptGly-Glu(Me)-AOMK [JN-1]
- effect of inhibitor pretreatment on probe binding [1]: did not influence probe binding

Molecule: BODIPY-PEG(4)-Phe(F5)-Cit-Lys(2ClZ)-Glu(Me)-AOMK [OG-235]
- kobs/[I] Cath S [6]: 1,140,000 M^-1s^-1
- Selectivity S to B [6]: 148
- Selectivity S to V [6]: 695
- higher potency than the unlabeled parent inhibitor ([6]; cathepsin S kobs/[I], probe vs parent inhibitor): over 2 fold
- selectivity for cathepsin S over cathepsin L ([6]; kobs/[I] based): > 2000 fold
- selectivity for cathepsin S over cathepsin V ([6]; kobs/[I] based): > 500 fold
- kobs/[I] Cath L [7]: < 500 M⁻¹ s⁻¹
- kobs/[I] Cath V [10]: 1,640 M^-1s^-1
- kobs/[I] Cath B [8]: 7,700 M^-1s^-1

Molecule: Ac-Phe(F5)-Thz-2Aoc-Glu(Me)-ACC [OG-201]
- Km [2]: 3.04 µM
- kcat Cathepsin S [2]: 0,65
- Km [3]: 12.1 µM
- kcat Cathepsin L [3]: 0,03
- Km [4]: 11.2 µM
- kcat Cathepsin V [4]: 0,29
- Km [5]: 15.8 µM
- kcat Cathepsin B [5]: 0,46
